8 molecules from ChEMBL document CHEMBL1201862, “PubChem BioAssay data set” (2004) can be followed below.

Molecules are shown by their SMILES.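 Assay format: 96-well plates, 48-hour exposure. GI50 marks 50% less growth.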 Active and inactive are the calls of the source. Rule as the data show it: active = GI50 up to about 1.1 µM and inactive = higher. Where only a bound is given, the exact number is not on record here.

Test systems include DU-145; HCC 2998; HCT-15; HL-60; HOP-62; HOP-92; M14; MDA-MB-435; NCI-H226; NCI-H23; NCI-H522; PC-3; RXF 393; SF-539; SN12C; SNB-19; T47D; TK-10; UO-31; SNB-78.
What all share (test): NCI-60 cell line screen, 48 h

For the molecule `CN(C(=O)c1ccccc1)C1CCCC(=O)CC1` (stereo unspecified), the GI50 with DU-145 was > 100 µM (inactive); with HCC 2998, > 100 µM (inactive); with HCT-15, greater than 100 µM; with HL-60, > 100 µM (inactive); with HOP-62, > 100 µM (inactive); with HOP-92 it was > 100 µM (inactive). Besides, the GI50 in the experiment on M14, with MDA-MB-435, with NCI-H226, with NCI-H23, in the experiment with NCI-H522 and in the experiment on PC-3 was > 100 µM (inactive) throughout. The GI50 in the experiment with RXF 393, in the experiment with SF-539, in the experiment on SN12C, with SNB-19, in the experiment with T47D and in the experiment with TK-10 was > 100 µM (inactive) in each case. The GI50 in the experiment on UO-31 is > 100 µM (inactive).

On to `O=C1C2c3[nH]c4ccccc4c3[C@@H]3CCCCCCCCCCC3C2C(=O)N1c1ccccc1` (stereo partly specified), for which the GI50 is 27.5 µM (inactive) in the experiment with HCC 2998; 38.6 µM in the experiment on HCT-15; 12.1 µM (inactive) in the experiment with HL-60; 15.3 µM (inactive) with M14; 33.5 µM (inactive) in the experiment on NCI-H226; 17.5 µM (inactive) in the experiment with NCI-H23. For the same molecule, the GI50 is 14.8 µM (inactive) with RXF 393; 10.1 µM (inactive) in the experiment on SF-539; 18.6 µM (inactive) in the experiment on SN12C; 12.4 µM (inactive) in the experiment on SNB-19; 8.53 µM (inactive) in the experiment on SNB-78; 20 µM (inactive) with TK-10. Also, the GI50 in the experiment on UO-31 is 32.9 µM (inactive).

Consider `Cc1ccc(NCC2CC/C(=C\c3ccc(Cl)cc3)C2=O)cc1` (stereo unspecified), for which the GI50 in the experiment with DU-145 was 30.1 µM (inactive); in the experiment with HCC 2998 it was 30.6 µM (inactive); with HCT-15, 1.94 µM; with HL-60, 2.16 µM (inactive); with HOP-62, 50 µM (inactive); in the experiment on HOP-92, 0.569 µM (active). Further, the GI50 in the experiment with M14 was 13.4 µM (inactive); with MDA-MB-435, 14.4 µM (inactive); with NCI-H226 it was > 76.6 µM (inactive); in the experiment on NCI-H23, 20.6 µM (inactive); in the experiment on NCI-H522, 7.38 µM (inactive); in the experiment with PC-3 it was 14.9 µM (inactive). For the same molecule, the GI50 is 17 µM (inactive) in the experiment on RXF 393; 23.7 µM (inactive) in the experiment on SF-539; 13.1 µM (inactive) in the experiment with SN12C; 21.2 µM (inactive) in the experiment with SNB-19; 15.1 µM (inactive) with T47D; 11.3 µM (inactive) in the experiment on TK-10. For the same molecule, in the experiment on UO-31, the GI50 was 21.2 µM (inactive).

Regarding `C=C(CN(C)C)C1(c2ccccc2)CC2(CCCC2)C(=O)O1` (stereo unspecified), the GI50 was > 100 µM (inactive) in the experiment on DU-145; > 100 µM (inactive) in the experiment with HCC 2998; 76.9 µM with HCT-15; 23.7 µM (inactive) in the experiment on HL-60; > 100 µM (inactive) in the experiment on HOP-62; 17.9 µM (inactive) in the experiment on HOP-92. The GI50 with M14 was 66.5 µM (inactive); in the experiment on MDA-MB-435 it was 56.4 µM (inactive); in the experiment on NCI-H226, > 100 µM (inactive); in the experiment on NCI-H23, 27.2 µM (inactive); with NCI-H522 it was 20.9 µM (inactive); in the experiment on PC-3, 79.6 µM (inactive). Moreover, the GI50 in the experiment on RXF 393, with SF-539, with SN12C, in the experiment with SNB-19, in the experiment with T47D and with TK-10 was > 100 µM (inactive) in each case. In addition, the GI50 in the experiment on UO-31 was 23.9 µM (inactive).

`C=C(C)C(=O)O[C@H]1[C@H]2[C@H](OC(=O)[C@H]2C)[C@H](O)[C@@H](C)[C@@H]2C=CC(=O)[C@]21C`: the GI50 is 3.9 µM (inactive) in the experiment on DU-145; 2.45 µM (inactive) with HCC 2998; 2.04 µM in the experiment with HCT-15; 0.692 µM (active) with HL-60; 9.06 µM (inactive) in the experiment with HOP-62; 3.66 µM (inactive) with HOP-92. The GI50 was 5.97 µM (inactive) with M14; 2.56 µM (inactive) in the experiment with MDA-MB-435; 8.57 µM (inactive) in the experiment on NCI-H226; 3.71 µM (inactive) with NCI-H23; 1.2 µM (inactive) in the experiment on NCI-H522; 4.51 µM (inactive) with PC-3. Also, the GI50 in the experiment with RXF 393 was 1.22 µM (inactive); in the experiment on SF-539, 3.67 µM (inactive); in the experiment on SN12C, 2.08 µM (inactive); with SNB-19 it was 4.93 µM (inactive); with T47D it was 4.78 µM (inactive); with TK-10 it was 2.82 µM (inactive). The GI50 in the experiment with UO-31 is 3.94 µM (inactive).

For `CC(NNC(=O)c1cc[n+]([BH2-]C#N)cc1)c1ccccc1` (stereo unspecified), the GI50 with DU-145 was > 100 µM (inactive); in the experiment on HCC 2998, > 100 µM (inactive); in the experiment on HCT-15 it was greater than 100 µM; in the experiment on HL-60, > 100 µM (inactive); in the experiment on HOP-62, > 100 µM (inactive); with HOP-92 it was > 100 µM (inactive). In addition, the GI50 in the experiment on M14, with MDA-MB-435, in the experiment with NCI-H226, in the experiment with NCI-H23, in the experiment on NCI-H522 and in the experiment on PC-3 was > 100 µM (inactive) each time. Further, the GI50 in the experiment with RXF 393, with SF-539, in the experiment on SN12C, in the experiment on SNB-19, in the experiment with T47D and with TK-10 was > 100 µM (inactive) throughout. Moreover, in the experiment on UO-31, the GI50 is > 100 µM (inactive).

As for `Oc1cnnc2nc3ccccc3n12`, the GI50 in the experiment with DU-145 was > 100 µM (inactive); in the experiment on HCC 2998, > 100 µM (inactive); in the experiment on HCT-15 it was greater than 100 µM; in the experiment with HL-60, > 100 µM (inactive); in the experiment on HOP-62, > 100 µM (inactive); in the experiment on HOP-92, > 100 µM (inactive). Besides, the GI50 in the experiment on M14, in the experiment with MDA-MB-435, in the experiment with NCI-H226, with NCI-H23, in the experiment on NCI-H522 and in the experiment on PC-3 was > 100 µM (inactive) each time. Further, the GI50 in the experiment on RXF 393, in the experiment on SF-539, in the experiment on SN12C, with SNB-19, with T47D and with TK-10 was > 100 µM (inactive) throughout. In addition, in the experiment with UO-31, the GI50 is > 100 µM (inactive).

In the case of `CC(C)=CCc1ccc2[nH]c3c(c2c1)C(=O)C(=O)C(C)=C3C(O)C(C)O` (stereo unspecified), the GI50 is 10.5 µM (inactive) in the experiment with DU-145; 6.38 µM (inactive) with HCC 2998; 2.32 µM in the experiment with HCT-15; 0.769 µM (active) with HL-60; 20.3 µM (inactive) in the experiment with HOP-62; 1.51 µM (inactive) with HOP-92. Further, the GI50 was 1.91 µM (inactive) in the experiment with M14; 2.85 µM (inactive) in the experiment with MDA-MB-435; 15.1 µM (inactive) with NCI-H226; 5.4 µM (inactive) in the experiment on NCI-H23; 1.69 µM (inactive) in the experiment with NCI-H522; 9.57 µM (inactive) in the experiment with PC-3. Moreover, the GI50 in the experiment on RXF 393 was 2.17 µM (inactive); with SF-539, 5.98 µM (inactive); in the experiment on SN12C, 8.55 µM (inactive); with SNB-19, 17 µM (inactive); in the experiment with T47D it was 2.29 µM (inactive); with TK-10 it was 2.52 µM (inactive). The GI50 in the experiment on UO-31 is 1.55 µM (inactive).
